What was measured:
Experiment in all cases: Eurofins kinase panel
Assay type in all cases: biochemical
Conditions in all cases: read-out: Inhibition rate (%)
[1] = target: T1, Flt3(h) (Homo sapiens, UniProt P36888)
T1 construct: purchased Eurofins (KinaseProfiler)
T1 sequence (P36888 27-993): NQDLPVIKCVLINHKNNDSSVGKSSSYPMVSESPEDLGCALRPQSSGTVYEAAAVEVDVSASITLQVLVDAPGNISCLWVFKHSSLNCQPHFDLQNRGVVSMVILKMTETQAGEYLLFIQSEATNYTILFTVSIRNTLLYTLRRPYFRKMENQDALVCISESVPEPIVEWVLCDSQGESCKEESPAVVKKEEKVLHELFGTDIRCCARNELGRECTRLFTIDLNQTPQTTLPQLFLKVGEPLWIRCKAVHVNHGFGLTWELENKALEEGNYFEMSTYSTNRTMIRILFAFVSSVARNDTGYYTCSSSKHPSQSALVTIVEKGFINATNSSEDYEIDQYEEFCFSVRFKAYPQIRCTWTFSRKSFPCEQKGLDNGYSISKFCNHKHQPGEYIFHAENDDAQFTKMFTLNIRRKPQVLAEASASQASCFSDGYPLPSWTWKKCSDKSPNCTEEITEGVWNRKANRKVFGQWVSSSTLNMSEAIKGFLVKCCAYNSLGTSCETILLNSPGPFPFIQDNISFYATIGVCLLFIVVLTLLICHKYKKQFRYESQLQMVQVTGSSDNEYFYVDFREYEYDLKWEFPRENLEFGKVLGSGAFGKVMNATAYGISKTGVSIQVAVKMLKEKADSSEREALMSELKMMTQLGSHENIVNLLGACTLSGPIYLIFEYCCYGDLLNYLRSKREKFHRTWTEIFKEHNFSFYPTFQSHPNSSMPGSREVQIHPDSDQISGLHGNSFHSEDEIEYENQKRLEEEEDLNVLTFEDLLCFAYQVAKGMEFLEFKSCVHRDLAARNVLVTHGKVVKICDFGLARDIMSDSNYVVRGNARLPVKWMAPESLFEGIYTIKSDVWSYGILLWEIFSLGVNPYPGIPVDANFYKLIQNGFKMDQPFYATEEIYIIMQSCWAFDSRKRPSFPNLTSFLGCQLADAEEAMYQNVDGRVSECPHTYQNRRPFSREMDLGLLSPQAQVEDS

[2] = target: T2, TSSK3(h) (Homo sapiens, UniProt Q96PN8)
T2 construct: purchased Eurofins (KinaseProfiler)
T2 sequence (Q96PN8 1-268): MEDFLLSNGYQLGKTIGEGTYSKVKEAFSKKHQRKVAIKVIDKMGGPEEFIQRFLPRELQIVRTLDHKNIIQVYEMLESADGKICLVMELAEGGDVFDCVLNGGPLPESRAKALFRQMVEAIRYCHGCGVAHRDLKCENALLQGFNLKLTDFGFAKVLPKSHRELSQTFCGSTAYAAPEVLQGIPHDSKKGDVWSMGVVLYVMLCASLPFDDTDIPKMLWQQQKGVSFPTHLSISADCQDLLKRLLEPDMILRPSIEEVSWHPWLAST

[3] = target: T3, EGFR(h) (Homo sapiens, UniProt P00533)
T3 construct: purchased Eurofins (KinaseProfiler)

[4] = target: T4, MINK(h) (Homo sapiens, UniProt Q8N4C8)
T4 construct: purchased Eurofins (KinaseProfiler)

[5] = target: T5, Src(T341M)(h) (Homo sapiens, UniProt P12931, T341M)
T5 construct: purchased Eurofins (KinaseProfiler)

[6] = target: T6, NEK6(h) (Homo sapiens, UniProt Q9HC98)
T6 construct: purchased Eurofins (KinaseProfiler)

[7] = target: T7, CDK2/cyclinA(h) (Homo sapiens, UniProt P24941)
T7 construct: purchased Eurofins (KinaseProfiler)

[8] = target: T8, p70S6K(h) (Homo sapiens, UniProt P23443)
T8 construct: purchased Eurofins (KinaseProfiler)

[9] = target: T9, ZIPK(h) (Homo sapiens, UniProt O43293)
T9 construct: purchased Eurofins (KinaseProfiler)

[10] = target: T10, IGF-1R(h) (Homo sapiens, UniProt P08069)
T10 construct: purchased Eurofins (KinaseProfiler)

[11] = target: T11, MSSK1(h) (Homo sapiens, UniProt Q9UPE1)
T11 construct: purchased Eurofins (KinaseProfiler)

[12] = target: T12, Tie2(Y897S)(h) (Homo sapiens, UniProt Q02763, Y897S)
T12 construct: purchased Eurofins (KinaseProfiler)

[13] = target: T13, Rsk2(h) (Homo sapiens, UniProt P51812)
T13 construct: purchased Eurofins (KinaseProfiler)

[14] = target: T14, PAK6(h) (Homo sapiens, UniProt Q9NQU5)
T14 construct: purchased Eurofins (KinaseProfiler)
T14 sequence (Q9NQU5 whole entry): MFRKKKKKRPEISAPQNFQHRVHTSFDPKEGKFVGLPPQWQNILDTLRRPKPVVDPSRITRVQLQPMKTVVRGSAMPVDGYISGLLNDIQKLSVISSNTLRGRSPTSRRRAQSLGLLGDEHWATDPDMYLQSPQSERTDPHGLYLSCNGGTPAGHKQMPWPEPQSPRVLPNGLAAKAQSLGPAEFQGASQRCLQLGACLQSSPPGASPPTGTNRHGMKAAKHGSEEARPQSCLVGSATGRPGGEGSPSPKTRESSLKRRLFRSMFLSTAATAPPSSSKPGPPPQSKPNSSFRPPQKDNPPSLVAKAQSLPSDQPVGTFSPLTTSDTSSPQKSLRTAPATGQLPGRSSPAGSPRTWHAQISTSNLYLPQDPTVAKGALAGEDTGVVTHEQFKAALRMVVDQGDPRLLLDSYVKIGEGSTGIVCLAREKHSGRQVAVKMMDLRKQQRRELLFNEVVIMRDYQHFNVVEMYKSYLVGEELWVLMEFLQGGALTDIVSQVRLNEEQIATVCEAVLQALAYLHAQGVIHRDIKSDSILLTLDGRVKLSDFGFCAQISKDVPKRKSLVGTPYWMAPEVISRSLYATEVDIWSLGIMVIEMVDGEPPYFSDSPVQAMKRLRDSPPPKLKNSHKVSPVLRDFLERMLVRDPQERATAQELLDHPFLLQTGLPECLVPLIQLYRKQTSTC

T4 sequence (Q8N4C8 whole entry): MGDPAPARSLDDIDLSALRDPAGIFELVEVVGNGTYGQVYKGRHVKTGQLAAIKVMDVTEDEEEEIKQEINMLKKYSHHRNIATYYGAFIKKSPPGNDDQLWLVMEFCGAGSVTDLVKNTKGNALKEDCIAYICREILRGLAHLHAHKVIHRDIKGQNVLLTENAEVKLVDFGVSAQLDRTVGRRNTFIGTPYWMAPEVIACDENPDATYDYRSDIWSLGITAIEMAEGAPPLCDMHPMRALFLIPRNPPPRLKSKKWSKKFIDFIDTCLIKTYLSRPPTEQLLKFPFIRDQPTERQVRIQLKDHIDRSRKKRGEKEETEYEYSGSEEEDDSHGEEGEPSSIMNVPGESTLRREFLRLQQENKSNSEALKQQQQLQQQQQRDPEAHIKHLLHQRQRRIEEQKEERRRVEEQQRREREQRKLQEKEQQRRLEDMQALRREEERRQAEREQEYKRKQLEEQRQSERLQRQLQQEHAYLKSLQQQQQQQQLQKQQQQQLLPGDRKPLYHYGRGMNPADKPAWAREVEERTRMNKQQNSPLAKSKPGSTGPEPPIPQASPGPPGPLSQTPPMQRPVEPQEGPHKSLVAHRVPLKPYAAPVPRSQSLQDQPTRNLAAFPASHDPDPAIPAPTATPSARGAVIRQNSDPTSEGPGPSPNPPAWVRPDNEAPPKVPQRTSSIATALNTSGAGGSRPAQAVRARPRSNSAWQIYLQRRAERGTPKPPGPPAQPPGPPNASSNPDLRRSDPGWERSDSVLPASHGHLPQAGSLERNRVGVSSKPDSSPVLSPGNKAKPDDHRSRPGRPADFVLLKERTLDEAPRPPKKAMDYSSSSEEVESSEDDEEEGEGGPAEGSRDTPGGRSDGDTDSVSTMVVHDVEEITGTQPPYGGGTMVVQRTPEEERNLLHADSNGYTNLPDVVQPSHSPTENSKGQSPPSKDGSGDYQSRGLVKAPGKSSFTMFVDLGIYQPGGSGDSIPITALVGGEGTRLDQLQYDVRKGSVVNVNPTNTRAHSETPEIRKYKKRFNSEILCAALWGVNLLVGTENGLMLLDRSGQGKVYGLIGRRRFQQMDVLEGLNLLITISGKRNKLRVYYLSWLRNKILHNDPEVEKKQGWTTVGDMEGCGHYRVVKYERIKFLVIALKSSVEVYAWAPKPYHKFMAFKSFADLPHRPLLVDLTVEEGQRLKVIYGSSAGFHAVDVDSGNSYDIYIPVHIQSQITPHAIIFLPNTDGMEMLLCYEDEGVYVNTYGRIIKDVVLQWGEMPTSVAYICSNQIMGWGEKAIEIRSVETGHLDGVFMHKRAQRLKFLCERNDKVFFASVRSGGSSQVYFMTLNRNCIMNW
T10 sequence (P08069 31-1367): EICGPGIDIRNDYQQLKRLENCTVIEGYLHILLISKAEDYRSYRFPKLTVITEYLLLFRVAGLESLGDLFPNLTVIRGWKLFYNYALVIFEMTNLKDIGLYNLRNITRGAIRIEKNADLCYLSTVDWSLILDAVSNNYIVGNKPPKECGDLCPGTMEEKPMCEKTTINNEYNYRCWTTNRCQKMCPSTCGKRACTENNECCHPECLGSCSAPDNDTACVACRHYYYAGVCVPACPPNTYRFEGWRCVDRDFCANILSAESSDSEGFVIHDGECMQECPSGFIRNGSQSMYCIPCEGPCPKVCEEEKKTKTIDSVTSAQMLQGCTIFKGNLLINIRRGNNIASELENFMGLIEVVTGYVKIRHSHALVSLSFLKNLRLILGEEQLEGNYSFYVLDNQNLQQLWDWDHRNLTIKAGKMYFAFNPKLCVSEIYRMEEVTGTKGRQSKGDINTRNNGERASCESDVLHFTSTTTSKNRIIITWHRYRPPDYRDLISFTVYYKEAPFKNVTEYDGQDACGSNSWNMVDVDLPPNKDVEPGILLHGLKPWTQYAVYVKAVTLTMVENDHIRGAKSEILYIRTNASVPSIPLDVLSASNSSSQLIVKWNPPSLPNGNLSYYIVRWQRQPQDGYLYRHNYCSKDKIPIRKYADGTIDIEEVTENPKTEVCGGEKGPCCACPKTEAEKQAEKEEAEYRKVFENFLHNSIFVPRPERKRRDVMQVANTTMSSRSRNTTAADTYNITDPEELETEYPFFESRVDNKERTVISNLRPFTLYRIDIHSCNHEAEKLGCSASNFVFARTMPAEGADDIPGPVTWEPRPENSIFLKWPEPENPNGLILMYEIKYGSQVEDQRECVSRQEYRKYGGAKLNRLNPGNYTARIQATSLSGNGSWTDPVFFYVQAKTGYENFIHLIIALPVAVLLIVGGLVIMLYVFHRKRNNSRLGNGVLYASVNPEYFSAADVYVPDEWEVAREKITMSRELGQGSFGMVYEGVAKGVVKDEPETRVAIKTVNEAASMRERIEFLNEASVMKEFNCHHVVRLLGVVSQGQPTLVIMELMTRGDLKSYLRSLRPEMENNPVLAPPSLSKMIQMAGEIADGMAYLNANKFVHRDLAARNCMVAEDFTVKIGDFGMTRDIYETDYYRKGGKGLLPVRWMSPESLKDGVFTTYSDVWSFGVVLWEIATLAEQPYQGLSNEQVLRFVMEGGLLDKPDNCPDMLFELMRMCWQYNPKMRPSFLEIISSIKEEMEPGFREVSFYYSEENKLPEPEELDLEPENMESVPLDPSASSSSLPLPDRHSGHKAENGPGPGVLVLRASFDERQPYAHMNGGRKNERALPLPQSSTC
T12 sequence (Q02763 23-1124 Y897S): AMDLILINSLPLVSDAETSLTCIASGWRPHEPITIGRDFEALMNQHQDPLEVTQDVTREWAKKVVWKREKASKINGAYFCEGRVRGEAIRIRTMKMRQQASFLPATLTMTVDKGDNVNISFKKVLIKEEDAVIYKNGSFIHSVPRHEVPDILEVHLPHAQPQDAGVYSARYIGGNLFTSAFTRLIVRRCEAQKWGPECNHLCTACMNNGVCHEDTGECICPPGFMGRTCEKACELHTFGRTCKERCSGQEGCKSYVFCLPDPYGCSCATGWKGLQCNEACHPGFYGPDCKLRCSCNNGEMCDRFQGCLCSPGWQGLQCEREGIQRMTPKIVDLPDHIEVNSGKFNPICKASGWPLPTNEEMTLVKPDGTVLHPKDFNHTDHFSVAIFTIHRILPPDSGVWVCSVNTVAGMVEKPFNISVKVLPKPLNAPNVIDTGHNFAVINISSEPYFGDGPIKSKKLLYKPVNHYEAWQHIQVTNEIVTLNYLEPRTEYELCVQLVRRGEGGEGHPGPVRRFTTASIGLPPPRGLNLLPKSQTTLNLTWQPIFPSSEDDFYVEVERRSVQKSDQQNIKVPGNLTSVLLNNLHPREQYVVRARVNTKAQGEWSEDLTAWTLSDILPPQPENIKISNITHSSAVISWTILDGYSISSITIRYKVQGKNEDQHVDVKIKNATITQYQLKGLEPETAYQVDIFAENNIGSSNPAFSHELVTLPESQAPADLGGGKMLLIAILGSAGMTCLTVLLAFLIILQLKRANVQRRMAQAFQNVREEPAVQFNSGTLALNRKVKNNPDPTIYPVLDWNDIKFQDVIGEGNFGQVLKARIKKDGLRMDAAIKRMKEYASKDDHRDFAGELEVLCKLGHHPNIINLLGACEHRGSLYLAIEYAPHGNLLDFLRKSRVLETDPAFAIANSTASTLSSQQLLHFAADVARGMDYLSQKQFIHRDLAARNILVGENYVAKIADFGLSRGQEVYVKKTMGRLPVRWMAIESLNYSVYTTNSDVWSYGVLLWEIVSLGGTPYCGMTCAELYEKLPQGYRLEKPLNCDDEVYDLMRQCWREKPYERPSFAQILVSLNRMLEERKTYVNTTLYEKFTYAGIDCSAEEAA
T6 sequence (Q9HC98 whole entry): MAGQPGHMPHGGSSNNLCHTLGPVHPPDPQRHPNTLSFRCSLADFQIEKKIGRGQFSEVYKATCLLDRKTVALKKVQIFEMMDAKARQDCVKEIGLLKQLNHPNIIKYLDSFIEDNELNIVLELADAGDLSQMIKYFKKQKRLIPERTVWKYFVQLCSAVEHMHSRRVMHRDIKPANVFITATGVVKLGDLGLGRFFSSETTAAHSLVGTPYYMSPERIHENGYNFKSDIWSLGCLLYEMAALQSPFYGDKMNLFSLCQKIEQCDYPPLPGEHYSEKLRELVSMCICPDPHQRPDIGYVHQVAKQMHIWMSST

SMILES: COc1cc(OC)c(Cl)c(-c2ccc3c(NC(=O)c4ccc(N5CCNC(C)(C)C5)cc4)n[nH]c3n2)c1Cl [3D185]
- inhibition at 0.01 µM ([1]; 10 nM): 10%
- inhibition at 0.1 µM ([1]; 100 nM): 17%
- inhibition at 1 µM ([1]; 1000 nM): 27%
- inhibition at 0.01 µM ([2]; 10 nM): 14%
- inhibition at 0.1 µM ([2]; 100 nM): 5%
- inhibition at 1 µM ([2]; 1000 nM): 5%
- inhibition at 0.01 µM ([3]; 10 nM): -12%
- inhibition at 0.1 µM ([3]; 100 nM): -16%
- inhibition at 1 µM ([3]; 1000 nM): 0%
- inhibition at 0.01 µM ([4]; 10 nM): 28%
- inhibition at 0.1 µM ([4]; 100 nM): 68%
- inhibition at 1 µM ([4]; 1000 nM): 90%
- inhibition at 0.01 µM ([5]; 10 nM): 8%
- inhibition at 0.1 µM ([5]; 100 nM): 33%
- inhibition at 1 µM ([5]; 1000 nM): 88%
- inhibition at 0.01 µM ([6]; 10 nM): -7%
- inhibition at 0.1 µM ([6]; 100 nM): 4%
- inhibition at 1 µM ([6]; 1000 nM): 2%
- inhibition at 0.01 µM ([7]; 10 nM): 2%
- inhibition at 0.1 µM ([7]; 100 nM): 7%
- inhibition at 1 µM ([7]; 1000 nM): -3%
- inhibition at 0.01 µM ([8]; 10 nM): -4%
- inhibition at 0.1 µM ([8]; 100 nM): -9%
- inhibition at 1 µM ([8]; 1000 nM): -1%
- inhibition at 0.01 µM ([9]; 10 nM): -3%
- inhibition at 0.1 µM ([9]; 100 nM): 0%
- inhibition at 1 µM ([9]; 1000 nM): 2%
- inhibition at 0.01 µM ([10]; 10 nM): -5%
- inhibition at 0.1 µM ([10]; 100 nM): 54%
- inhibition at 1 µM ([10]; 1000 nM): 88%
- inhibition at 0.01 µM ([11]; 10 nM): 3%
- inhibition at 0.1 µM ([11]; 100 nM): 11%
- inhibition at 1 µM ([11]; 1000 nM): 18%
- inhibition at 0.01 µM ([12]; 10 nM): 14%
- inhibition at 0.1 µM ([12]; 100 nM): 39%
- inhibition at 1 µM ([12]; 1000 nM): 88%
- inhibition at 0.01 µM ([13]; 10 nM): -19%
- inhibition at 0.1 µM ([13]; 100 nM): 0%
- inhibition at 1 µM ([13]; 1000 nM): 24%
- inhibition at 0.01 µM ([14]; 10 nM): -3%
- inhibition at 0.1 µM ([14]; 100 nM): 12%
- inhibition at 1 µM ([14]; 1000 nM): -4%
